Experiments:
[1] = stability of ascorbic acid in the cream, UV determination at 266.5 nm; assay type: physicochemical; conditions: cream of Example 3, 4 months at room temperature then 45° C. for one month
Description: The stability of the ascorbic acid contained in the cream was determined as follows.
A series of samples of the cream contained in the said small plastic jars was kept for a period of 4 months at room temperature and then in an oven at 45° C. for one month, after which the ascorbic acid content of the cream was checked.
In order to determine the ascorbic acid content, 100 mg of cream were diluted in 100 ml of 0.1 M phosphate buffer at pH 6, and the thus obtained suspension was magnetically stirred in the dark for 20 minutes. Thereafter, 30 ml of the suspension were transferred to a 50 ml centrifuge tube and 15 ml of chloroform were added. The tube was shaken for 10 minutes and then centrifuged at 6000 rpm for 5 minutes. The upper aqueous phase was directly analyzed with a UV Vis Jasco V-350 spectrophotometer, using phosphate buffer as a blank and the ascorbic acid peak at 266.5 nm was measured.
The ascorbic acid concentration was determined by means of a calibration curve made from standard solutions containing 1.0, 1.5 and 2.0 mg ascorbic acid/100 ml phosphate buffer.

[2] = stability test of the cream, twelve weeks at 45° C., viscosity check and HPLC content; assay type: physicochemical; conditions: cream of Example 1, twelve weeks at 45° C.; nominal tocopherol 5, Greenselect 0.5, Leucoselect 0.5
Description: The cream was packed in plastics containers of 50 ml and subjected to a test to confirm the stability. A series of samples of the cream contained in the said small plastic jars was kept in an oven at 45° C. for twelve weeks, after which the viscosity of the cream was checked and found unaltered with respect to the starting value.
In addition there was the verification of the amount of polyphenols and vitamin E present in the cream at the end of the twelve weeks at 45° C., by means of an HPLC method, using a Macherey-Nagel column, Nucleosil 100-5 C18, packed with 5 μm particles (150×4.6 mm internal diameter), and a pre-column system Nucleosil 100-5 C18, CC 8/4.
The determination of free tocopherol, carried out using methanol as the eluent in isocratic conditions, with a flow rate of 1 ml/min and λ 290 nm, gave a value of 5.2%.
The determination of the polyphenol concentration in the cream was carried out using a mobile phase in binary gradient as eluent, composed of: phase A=0.3% formic acid in water and phase B=methanol; flow rate 1 ml/min; λ=278 nm. In such conditions the Greenselect® has a retention time Rt=22.84 min and the Leucoselect® Rt=6.53 min.

ascorbic acid lost by the end of the storage period [1] [%] | ascorbic acid concentration from the calibration curve ([1]; nominal 2 mg/100 ml) [mg/100 ml] | amount present in the cream at the end of storage (HPLC) [2] [%] | Compound
7.8 | 1.844 | – | O=C1O[C@H]([C@@H](O)CO)C(O)=C1O [ascorbic acid, Ascorbic acid]
– | – | 5.2 | Cc1c(C)c2c(c(C)c1O)CC[C@@](C)(CCC[C@H](C)CCC[C@H](C)CCCC(C)C)O2 [free tocopherol, Tocopherol]

Reference: US20160095810A1, “Cosmetic and/or dermatological compositions containing polyphenols stabilized by perfluoropolyether phosphates and use of perfluoropolyether phosphates as stabilizing agents for polyphenols” (BIO.LO.GA, priority 2003, published 2016)
